Source: US8247211B2, “Glycopeptide antibiotics” (American Cyanamid Company, priority 2001, dated 2012)
Values after ≈ are worked out from the molar mass of the structure shown.

Legend:
[1] = tested on: Staphylococcus aureus-SMITH (GC 4543); experiment: Acute lethal infection in mice (ED50); type: in vivo; details: female CD-1 mice, intraperitoneal challenge, intravenous dose 30 min. after infection, 7 day survival ratios
Method in brief: (§1)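 IP bacterial challenge, female CD-1 mice; inoculum lethal to untreated controls in 24-48 hr. IV dosing in saline or 5% dextrose 30 min post-infection, 5 mice/dose. ED50 from 7-day survival, 3 tests pooled.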

[2] = tested on: Streptococcus pneumoniae (GC 1894), penicillin resistant strain; experiment: Acute lethal infection in mice (ED50); type: in vivo; details: female CD-1 mice, intraperitoneal challenge, intravenous dose 30 min. after infection, 7 day survival ratios
Method in brief: as §1

[3] = tested on: Enterococcus faecalis (GC 6189), vancomycin resistant strain; experiment: Acute lethal infection in mice (ED50); type: in vivo; details: female CD-1 mice, intraperitoneal challenge, intravenous dose 30 min. after infection, 7 day survival ratios
Method in brief: as §1

[4] = Anatomic pathology (heart and kidney histopathology) in mice; type: in vivo, CD-1 mice; details: 20 mg/kg intravenously daily for 9 days, microscopic histopathology on day 10
Method in brief: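 Histopathology on H&E-stained, paraffin-embedded sections, subjectively scored (slight, mild, moderate, marked, severe) relative to untreated controls. Dosing: glycopeptide antibiotics 20 mg/kg intravenously once daily ×9 days in 20-day-old CD-1 mice, n=5 per group including vehicle.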

[5] = tested on: Streptococcus sp.; experiment: In vitro antibacterial evaluation: minimum inhibitory concentration (MIC), broth dilution method; type: cell-based; details: broth dilution, 5×10^5 CFU/mL, 18 hours at 35° C.
Method in brief: (§2)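 MIC by broth dilution in Mueller-Hinton II medium following NCCLS M7-A2. Inoculum was 5×10^5 CFU/mL and antibiotic was tested over 64-0.06 μg/mL. Gram-positive panel included clinical isolates resistant to methicillin, penicillin and/or vancomycin.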

[6] = tested on: Escherichia coli; experiment: as above; type: cell-based; details: 5×10^5 CFU/mL, 18 hours at 35° C.
Method in brief: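 Using Muller-Hinton II […] and an inoculum of 5×10^5 CFU/mL, antibiotic dilutions from 64 down to 0.06 μg/mL were tested following NCCLS M7-A2. The MIC is the lowest concentration inhibiting growth, including in methicillin-, penicillin- or vancomycin-resistant clinical isolates.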

[7] = tested on: Enterococcus sp.; experiment: as above; type: cell-based; details: broth dilution, 5×10^5 CFU/mL, 18 hours at 35° C.
Method in brief: as §2

[8] = tested on: Staphylococcus sp.; experiment: as above; type: cell-based; details: for MIC Staphylococcus aureus (ATCC 29213): strain ATCC 29213; for MIC Staphylococcus aureus (GC 1131): strain GC 1131; for MIC Staphylococcus aureus (GC 4541): strain GC 4541; for MIC Staphylococcus aureus (GC 4542): strain GC 4542; for MIC Staphylococcus aureus-SMITH (GC 4543): strain GC 4543; for MIC Staphylococcus aureus (GC 4544): strain GC 4544; for MIC Staphylococcus aureus (GC 4545): strain GC 4545; for MIC Staphylococcus haemolyticus (GC 4546): strain GC 4546; for MIC Coagulase Negative Staphylococcus (GC 4547): strain GC 4547; for MIC Coagulase Negative Staphylococcus (GC 4548): strain GC 4548; for MIC Coagulase Negative Staphylococcus (GC 4549): strain GC 4549; for MIC Coagulase Negative Staphylococcus (GC 4551): strain GC 4551; for MIC Coagulase Negative Staphylococcus (GC 6257): strain GC 6257; for MIC Coagulase Negative Staphylococcus (ID-3941): strain ID-3941
Method in brief: as §2

[9] = type: in vivo; details: mice, 20 mg/kg intravenously daily for 9 days, serum on day 10
Method: 20-day-old CD-1 mice were divided into a vehicle control group (5 mice) and a treatment group (5 mice). Samples of glycopeptide antibiotics were administered at 20 mg/kg intravenously daily for 9 days. Animals were necropsied on day 10 Sera were analyzed for BUN (blood urea nitrogen), creatinine, AST (aspartic aminotransferase), and ALT (alanine aminotransferase) by routine, standard, automated methods using an Hitachi 747 chemistry analyzer.

[10] = broth dilution, 18 hours at 35° C.

CC(c1ccccc1)C1NC(=O)CNC(=O)C(CO)NC(=O)C(C(O)C2CNC(=N)N2C2OC(CO)C(O)C(O)C2O)NC(=O)C(C(O)C2CNC(=N)N2)NC(=O)C(Cc2ccc(OC3OC(CO)C(OC4OC5COC(c6ccccc6)OC5C(O)C4O)C(O)C3O)cc2)NC1=O (stereo not drawn) [Example 104, Cyclo[glycyl-β-methylphenylalanyl-O-[4-O-(4,6-O-benzylidenehexopyranosyl)hexopyranosyl]-tyrosyl-3-(2-iminoimidazolidin-4-yl)seryl-3-(3-hexopyranosyl-2-iminoimidazolidin-4-yl)-serylseryl]]
median effective dose (ED50), Staphylococcus aureus-SMITH (GC 4543) [1]: 0.19 mg/kg
median effective dose (ED50), Streptococcus pneumoniae (GC 1894) [2]: 0.22 mg/kg
median effective dose (ED50), Enterococcus faecalis (GC 6189) [3]: 0.39-0.63
Anatomical Pathology (Day 10), Heart [4]: +++
Anatomical Pathology (Day 10), Kidney [4]: +++
MIC Streptococcus pneumoniae (GC 1894) [5]: <0.12 µg/mL
MIC Streptococcus pneumoniae (GC 4565) [5]: <0.12 µg/mL
MIC Streptococcus pneumonine (ATCC 6301) [5]: <0.12 µg/mL
MIC Streptococcus pyogenes (GC 4563) [5]: <0.12 µg/mL
MIC Escherichia coli (GC 4560) [6]: 0.5 to 1 µg/mL
MIC Enterococccus avium (GC 4558) [7]: 2 to 4 µg/mL
MIC Enterococccus faecalis (ATCC 29212) [7]: 2 to 4 µg/mL
MIC Enterococccus faecalis (GC 2691) [7]: 4 µg/mL (≈ 2.89 µM)
MIC Enterococccus faecalis (GC 3059) [7]: 4 µg/mL (≈ 2.89 µM)
MIC Enterococccus faecalis (GC 4552) [7]: 4 µg/mL (≈ 2.89 µM)
MIC Enterococccus faecalis (GC 4553) [7]: 4 µg/mL (≈ 2.89 µM)
MIC Enterococccus faecalis (GC 4554) [7]: 4 µg/mL (≈ 2.89 µM)
MIC Enterococccus faecalis (GC 6189) [7]: 2 µg/mL (≈ 1.45 µM)
MIC Enterococccus faecium (GC 2243) [7]: 2 µg/mL (≈ 1.45 µM)
MIC Enterococccus faecium (GC 4556) [7]: 2 to 4 µg/mL
MIC Enterococccus faecium (GC 4557) [7]: 2 µg/mL (≈ 1.45 µM)
MIC Enterococcus faecalis (GC 2242) [7]: 2 µg/mL (≈ 1.45 µM)
MIC Staphylococcus aureus (ATCC 29213) [8]: 1 µg/mL (≈ 0.723 µM)
MIC Staphylococcus aureus (GC 1131) [8]: 2 µg/mL (≈ 1.45 µM)
MIC Staphylococcus aureus (GC 3051) ([8]; strain GC 3051): 1 µg/mL (≈ 0.723 µM)
MIC Staphylococcus aureus (GC 3053) ([8]; strain GC 3053): 1 µg/mL (≈ 0.723 µM)
MIC Staphylococcus aureus (GC 4541) [8]: 1 µg/mL (≈ 0.723 µM)
MIC Staphylococcus aureus (GC 4542) [8]: 0.5 µg/mL (≈ 0.361 µM)
MIC Staphylococcus aureus-SMITH (GC 4543) ([8]; 18 hours at 35° C.): 0.5 to 1 µg/mL
MIC Staphylococcus aureus-SMITH (GC 4543) [8, 10]: 0.5 to 1 µg/mL
MIC Staphylococcus aureus (GC 4544) [8]: 1 µg/mL (≈ 0.723 µM)
MIC Staphylococcus aureus (GC 4545) [8]: 0.5 to 1 µg/mL
MIC Staphylococcus haemolyticus (GC 4546) [8]: 0.5 µg/mL (≈ 0.361 µM)
MIC Staphylococcus haemolyticus (GC 4546) [8, 10]: 0.5 µg/mL (≈ 0.361 µM)
MIC Coagulase Negative Staphylococcus (GC 4547) [8]: 1 µg/mL (≈ 0.723 µM)
MIC Coagulase Negative Staphylococcus (GC 4547) [8, 10]: 1 µg/mL (≈ 0.723 µM)
MIC Coagulase Negative Staphylococcus (GC 4548) [8]: 0.5 to 1 µg/mL
MIC Coagulase Negative Staphylococcus (GC 4548) [8, 10]: 0.5 to 1 µg/mL
MIC Coagulase Negative Staphylococcus (GC 4549) [8]: 0.5 µg/mL (≈ 0.361 µM)
MIC Coagulase Negative Staphylococcus (GC 4549) [8, 10]: 0.5 µg/mL (≈ 0.361 µM)
MIC Coagulase Negative Staphylococcus (GC 4551) [8]: 1 µg/mL (≈ 0.723 µM)
MIC Coagulase Negative Staphylococcus (GC 4551) [8, 10]: 1 µg/mL (≈ 0.723 µM)
MIC Coagulase Negative Staphylococcus (GC 6257) [8]: 0.5 µg/mL (≈ 0.361 µM)
MIC Coagulase Negative Staphylococcus (GC 6257) [8, 10]: 0.5 µg/mL (≈ 0.361 µM)
Clinical Chemistry (Day 10) % of Control, AST [9]: +87%
Clinical Chemistry (Day 10) % of Control, Creatinine [9]: +65%

CC(c1ccccc1)C1NC(=O)CNC(=O)C(CO)NC(=O)C(C(O)C2CNC(=N)N2C2OC(CO)C(O)C(O)C2O)NC(=O)C(C(O)C2CNC(=N)N2)NC(=O)C(Cc2ccc(OC3OC(CO)C(OC4OC5COC(C6CCCCC6)OC5C(O)C4O)C(O)C3O)cc2)NC1=O (stereo not drawn) [Example 112]
median effective dose (ED50), Staphylococcus aureus-SMITH (GC 4543) [1]: 0.07-0.08
median effective dose (ED50), Streptococcus pneumoniae (GC 1894) [2]: 0.02 mg/kg
median effective dose (ED50), Enterococcus faecalis (GC 6189) [3]: 0.19-0.28
MIC Streptococcus agalactiae (GC 4564) [5]: <0.12 µg/mL
MIC Streptococcus pneumoniae (GC 4565) [5]: <0.12 µg/mL
MIC Streptococcus pyogenes (GC 4563) [5]: <0.12 µg/mL
MIC Streptococcus pyogenes (ID-3187) [5]: 0.5 µg/mL (≈ 0.36 µM)
MIC Escherichia coli (ATCC 25922) [6]: 32 µg/mL (≈ 23 µM)
MIC Escherichia coli (GC 4559) [6]: >16 µg/mL
MIC Escherichia coli (GC 4560) [6]: 1 µg/mL (≈ 0.72 µM)
MIC Enterococccus avium (GC 4558) [7]: 2 µg/mL (≈ 1.44 µM)
MIC Enterococccus faecalis (ATCC 29212) [7]: 2 µg/mL (≈ 1.44 µM)
MIC Enterococccus faecalis (GC 2691) [7]: 2 µg/mL (≈ 1.44 µM)
MIC Enterococccus faecalis (GC 3059) [7]: 2 µg/mL (≈ 1.44 µM)
MIC Enterococccus faecalis (GC 4552) [7]: 2 µg/mL (≈ 1.44 µM)
MIC Enterococccus faecalis (GC 4553) [7]: 2 to 4 µg/mL
MIC Enterococccus faecalis (GC 4554) [7]: 2 µg/mL (≈ 1.44 µM)
MIC Enterococccus faecalis (GC 6189) [7]: 2 µg/mL (≈ 1.44 µM)
MIC Enterococccus faecium (GC 2243) [7]: 1 to 2 µg/mL
MIC Enterococccus faecium (GC 4556) [7]: 2 µg/mL (≈ 1.44 µM)
MIC Enterococccus faecium (GC 4557) [7]: 0.5 to 2 µg/mL
MIC Enterococcus faecalis (GC 2242) [7]: 1 to 2 µg/mL
MIC Staphylococcus aureus (ATCC 29213) [8]: 1 µg/mL (≈ 0.72 µM)
MIC Staphylococcus aureus (ATCC 29213) [8, 10]: 1 µg/mL (≈ 0.72 µM)
MIC Staphylococcus aureus (GC 1131) [8]: 0.5 to 1 µg/mL
MIC Staphylococcus aureus (GC 1131) [8, 10]: 0.5 to 1 µg/mL
MIC Staphylococcus aureus (GC 4541) [8]: 1 µg/mL (≈ 0.72 µM)
MIC Staphylococcus aureus (GC 4541) [8, 10]: 1 µg/mL (≈ 0.72 µM)
MIC Staphylococcus aureus (GC 4542) [8]: 1 µg/mL (≈ 0.72 µM)
MIC Staphylococcus aureus (GC 4542) [8, 10]: 1 µg/mL (≈ 0.72 µM)
MIC Staphylococcus aureus-SMITH (GC 4543) ([8]; 18 hours at 35° C.): 0.5 to 1 µg/mL
MIC Staphylococcus aureus-SMITH (GC 4543) [8, 10]: 0.5 to 1 µg/mL
MIC Staphylococcus aureus (GC 4544) [8]: 0.5 to 2 µg/mL
MIC Staphylococcus aureus (GC 4544) [8, 10]: 0.5 to 2 µg/mL
MIC Staphylococcus aureus (GC 4545) [8]: 1 to 2 µg/mL
MIC Staphylococcus aureus (GC 4545) [8, 10]: 1 to 2 µg/mL
MIC Staphylococcus haemolyticus (GC 4546) [8]: 1 µg/mL (≈ 0.72 µM)
MIC Staphylococcus haemolyticus (GC 4546) [8, 10]: 1 µg/mL (≈ 0.72 µM)
MIC Coagulase Negative Staphylococcus (GC 4547) [8]: 0.5 to 1 µg/mL
MIC Coagulase Negative Staphylococcus (GC 4547) [8, 10]: 0.5 to 1 µg/mL
MIC Coagulase Negative Staphylococcus (GC 4548) [8]: 0.5 to 1 µg/mL
MIC Coagulase Negative Staphylococcus (GC 4548) [8, 10]: 0.5 to 1 µg/mL
MIC Coagulase Negative Staphylococcus (GC 4549) [8]: 0.5 to 1 µg/mL
MIC Coagulase Negative Staphylococcus (GC 4549) [8, 10]: 0.5 to 1 µg/mL
MIC Coagulase Negative Staphylococcus (GC 4551) [8]: 0.5 to 1 µg/mL
MIC Coagulase Negative Staphylococcus (GC 4551) [8, 10]: 0.5 to 1 µg/mL
MIC Coagulase Negative Staphylococcus (GC 6257) [8]: 1 µg/mL (≈ 0.72 µM)
MIC Coagulase Negative Staphylococcus (GC 6257) [8, 10]: 1 µg/mL (≈ 0.72 µM)
MIC Coagulase Negative Staphylococcus (ID-3941) [8]: 0.5 µg/mL (≈ 0.36 µM)
MIC Coagulase Negative Staphylococcus (ID-3941) [8, 10]: 0.5 µg/mL (≈ 0.36 µM)
